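How tested: cells in 96-well plates exposed to compound for 48 hours at five concentrations. Definition used: TGI = concentration required for complete inhibition of growth.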
Assays:
Assay in all cases: inhibition of tumour cell growth, NCI panel, 48 h
[1] = system: 786-0 renal
[2] = system: A498 renal
[3] = system: A549 NSCLC
[4] = system: ACHN renal
[5] = system: BT-549 breast
[6] = system: CAKI-1 renal
[7] = system: CCRF-CEM leukemia
[8] = system: COLO 205 colon
[9] = system: DU-145 prostate
[10] = system: EKVX NSCLC
[11] = system: HCT-116 colon
[12] = system: HCT-15 colon
[13] = system: HL-60(TB) leukemia
[14] = system: HOP-62 NSCLC
[15] = system: HOP-92 NSCLC
[16] = system: HS 578T breast
[17] = system: HT29 colon
[18] = system: IGROV1 ovarian
[19] = system: K-562 leukemia
[20] = system: KM12 colon
[21] = system: LOX IMVI melanoma
[22] = system: M14 melanoma
[23] = system: MALME-3M melanoma
[24] = system: MCF7 breast
[25] = system: MDA-MB-231 breast
[26] = system: MDA-MB-435
[27] = system: MDA-N
[28] = system: MOLT-4 leukemia
[29] = system: NCI-H226 lung
[30] = system: NCI-H23 lung
[31] = system: NCI-H460 lung
[32] = system: NCI-H522 lung
[33] = system: NCI/ADR-RES ovarian
[34] = system: OVCAR-3 ovarian
[35] = system: OVCAR-4 ovarian
[36] = system: OVCAR-5 ovarian
[37] = system: OVCAR-8 ovarian
[38] = system: PC-3 prostate
[39] = system: RPMI-8226 leukemia
[40] = system: RXF 393 renal
[41] = system: SF-268 CNS
[42] = system: SF-295 CNS
[43] = system: SF-539 CNS
[44] = system: SK-MEL-2 melanoma
[45] = system: SK-MEL-28 melanoma
[46] = system: SK-MEL-5 melanoma
[47] = system: SK-OV-3 ovarian
[48] = system: SN12C renal
[49] = system: SNB-19 CNS
[50] = system: SNB-75 CNS
[51] = system: SW-620 colon
[52] = system: T-47D breast
[53] = system: TK-10 renal
[54] = system: U251 CNS
[55] = system: UACC-62 melanoma
[56] = system: UO-31 renal
[57] = system: HCC-2998 colon
[58] = system: SR leukemia
[59] = system: UACC-257 melanoma

## COC(=O)Nc1nc2ccc(NS(=O)(=O)c3cccs3)cc2[nH]1
[1]
  TGI: > 100 µM
[2]
  TGI: 91.7 µM
[3]
  TGI: > 100 µM
[4]
  TGI: > 100 µM
[5]
  TGI: > 100 µM
[6]
  TGI: > 100 µM
[7]
  TGI: > 100 µM
[8]
  TGI: > 100 µM
[9]
  TGI: > 100 µM
[10]
  TGI: 73.7 µM
[11]
  TGI: 47.5 µM
[12]
  TGI: > 100 µM
[13]
  TGI: 55.5 µM
[14]
  TGI: 82.4 µM
[15]
  TGI: 70.4 µM
[16]
  TGI: 36.4 µM
[17]
  TGI: > 100 µM
[18]
  TGI: 39.7 µM
[19]
  TGI: > 100 µM
[20]
  TGI: 89.5 µM
[21]
  TGI: > 100 µM
[22]
  TGI: 76 µM
[23]
  TGI: 54.7 µM
[24]
  TGI: 70.4 µM
[25]
  TGI: > 100 µM
[26]
  TGI: 21.4 µM
[27]
  TGI: 16.8 µM
[28]
  TGI: 77.4 µM
[29]
  TGI: > 100 µM
[30]
  TGI: > 100 µM
[31]
  TGI: > 100 µM
[32]
  TGI: 29.9 µM
[33]
  TGI: 85.3 µM
[34]
  TGI: 49.2 µM
[35]
  TGI: > 100 µM
[36]
  TGI: > 100 µM
[37]
  TGI: > 100 µM
[38]
  TGI: > 100 µM
[39]
  TGI: > 100 µM
[40]
  TGI: 85.8 µM
[41]
  TGI: > 100 µM
[42]
  TGI: 70.9 µM
[43]
  TGI: > 100 µM
[44]
  TGI: > 100 µM
[45]
  TGI: > 100 µM
[46]
  TGI: > 100 µM
[47]
  TGI: 90.6 µM
[48]
  TGI: > 100 µM
[49]
  TGI: > 100 µM
[50]
  TGI: 67.8 µM
[51]
  TGI: > 100 µM
[52]
  TGI: 85.3 µM
[53]
  TGI: 68 µM
[54]
  TGI: > 100 µM
[55]
  TGI: > 100 µM
[56]
  TGI: > 100 µM

## C=CCC1(C(=O)OC)CCC/C(=N\O)C1 (configuration not stated)
[1]
  TGI: > 10 µM
[3]
  TGI: > 10 µM
[4]
  TGI: > 10 µM
[5]
  TGI: > 10 µM
[6]
  TGI: > 10 µM
[7]
  TGI: > 10 µM
[8]
  TGI: > 10 µM
[9]
  TGI: > 10 µM
[57]
  TGI: > 10 µM
[11]
  TGI: > 10 µM
[12]
  TGI: > 10 µM
[13]
  TGI: > 10 µM
[14]
  TGI: > 10 µM
[15]
  TGI: > 10 µM
[16]
  TGI: > 10 µM
[17]
  TGI: > 10 µM
[18]
  TGI: > 10 µM
[19]
  TGI: > 10 µM
[20]
  TGI: > 10 µM
[21]
  TGI: > 10 µM
[22]
  TGI: > 10 µM
[23]
  TGI: > 10 µM
[24]
  TGI: > 10 µM
[25]
  TGI: > 10 µM
[26]
  TGI: > 10 µM
[27]
  TGI: > 10 µM
[28]
  TGI: > 10 µM
[30]
  TGI: > 10 µM
[32]
  TGI: > 10 µM
[33]
  TGI: > 10 µM
[34]
  TGI: > 10 µM
[35]
  TGI: > 10 µM
[37]
  TGI: > 10 µM
[38]
  TGI: > 10 µM
[39]
  TGI: > 10 µM
[41]
  TGI: > 10 µM
[42]
  TGI: > 10 µM
[43]
  TGI: > 10 µM
[45]
  TGI: > 10 µM
[46]
  TGI: > 10 µM
[47]
  TGI: > 10 µM
[48]
  TGI: > 10 µM
[49]
  TGI: > 10 µM
[50]
  TGI: > 10 µM
[58]
  TGI: > 10 µM
[51]
  TGI: > 10 µM
[52]
  TGI: > 10 µM
[53]
  TGI: > 10 µM
[54]
  TGI: > 10 µM
[59]
  TGI: > 10 µM
[55]
  TGI: > 10 µM

Source: PubChem BioAssay (NCI)
